The nature of this assay: Tooth whitening: colour change of tooth enamel measured with a dental spectrophotometer (L*a*b, ISO 28399). As to conditions: peptide alone 7.5 mg/mL, without excipients; 24 h after application; 10 teeth, three measurements per tooth. Here is the method:
Suspensions of oligopeptide 104 (5 mg/ml) with or without hydroxyapatite particles (average size d50≤300 nm (Horiba); 40-60% crystallinity, 25 wt %) were generated.
The suspensions were directly applied onto an enamel surface of a tooth, and residues washed off (10 sec). The specimen was stored in distilled water for 24 hours at 37° C. The procedure was repeated 3 times.
The tooth colour was measured with a dental spectrophotometer (VITA Easyshade). The illumination conditions were standardized with a black box as the background for the teeth during the measurement. The tip was applied perpendicular to the tooth surface and the average L*a*b-values from three repetitions were used for evaluations. Colour measurement were done at baseline ([…]), 24 hours after first application (t1), 24 hours after second application (t3), 24 hours after the third application (t4).
The mean changes of the L*a*b-values between different measurements in each group were expressed as […]E (according to ISO 28399).
Oligopeptide 104 was used in a concentration of 7.5 mg/mL, i.e., the concentration was higher than the concentration of peptide used in the application alone. ΔE was determined 24 h after application, with three measurements per tooth and 10 teeth examined. ΔE was 0.62. […]

Regarding QQRFEWEFEQQ (P11-4 / oligopeptide 104), the ΔE is given as 0.62.

Source of the values: patent US11154470B1, “Anti-inflammatory and senolytic dental care product with tooth whitening characteristics” (Credentis AG, priority 2020, dated 2021).
